The values below come from publication PMC9080233, “Synthesis and biological evaluation of novel quinolone derivatives dual targeting histone deacetylase and tubulin polymerization as antiproliferative agents” (RSC Advances, 2018).

The test system of one assay is tubulin. Briefly: Tubulin polymerization assay. The conditions noted are these: in words. The assay is classed as biochemical.
Assay [1] deals with prostate cancer cells PC-3. Briefly: Antiproliferative activity, CCK-8 assay, PC-3. The conditions noted are these: Homo sapiens; CCK-8, 72 hours; mean ± SD. The format is cell-based.
Procedure: (§2) Antitumor activities in vitro of synthetic compounds were measured using CCK-8 Assay Kit (BPS Bioscience, CA) according to the manufacturer's protocol. […] Control cells were treated with serum free medium. Then CCK-8 solution was added to each well to determine cell viability. The IC50 values were calculated according to the dose-dependent curves (Origin software). IC50 values were determined using nonlinear regression analysis.
Another assay relates to healthy MCF-10A cells. Nature of the assay: Toxicity to healthy cells, CCK-8 assay, MCF-10A. The format is cell-based. The conditions noted are these: Homo sapiens, MCF-10A; healthy cells, CCK-8, 72 hours; >100 = not determinable up to highest concentrations tested.
The test system of assay [2] is human cervical carcinoma cells HeLa. Nature of the assay: Antiproliferative activity, CCK-8 assay, HeLa. The conditions noted are these: CCK-8, 72 hours, mean ± SD, read-out: IC50 HeLa. The assay is classed as cell-based. Here is the method: (§1) Antitumor activities in vitro of synthetic compounds were measured using CCK-8 Assay Kit (BPS Bioscience, CA) according to the manufacturer's protocol. Cells were plated into 96-well plates with appropriate test compounds for 72 hours. Control cells were treated with serum free medium. Then CCK-8 solution was added to each well to determine cell viability. The IC50 values were calculated according to the dose-dependent curves (Origin software). IC50 values were determined using nonlinear regression analysis.

Another assay concerns liver cancer cells HepG2. Nature of the assay: Antiproliferative activity, CCK-8 assay, HepG2. The format is cell-based. To be noted: Homo sapiens, CCK-8, 72 hours, mean ± SD.
Assay [3] relates to five cancer cells, A549, HepG2, MCF-7, PC-3, HeLa. Briefly: Antiproliferative activity, CCK-8 assay, statements on all five cancer cell lines. The assay is classed as cell-based, human. As to the method: as §1
Another assay addresses T1, human recombinant HDAC1 (Homo sapiens, UniProt Q13547).
T1 construct: purchased BPS Bioscience, CA
Nature of the assay: HDAC activity assay (fluorogenic HDAC assay kit), HDAC1. The assay is classed as biochemical. The conditions noted are these: human recombinant HDAC1, 37 °C, 30 min.

For another assay, the target named is T2, human recombinant HDAC6 (Homo sapiens, UniProt Q9UBN7).
T2 construct: purchased BPS Bioscience, CA
T2 sequence (Q9UBN7 1-1215): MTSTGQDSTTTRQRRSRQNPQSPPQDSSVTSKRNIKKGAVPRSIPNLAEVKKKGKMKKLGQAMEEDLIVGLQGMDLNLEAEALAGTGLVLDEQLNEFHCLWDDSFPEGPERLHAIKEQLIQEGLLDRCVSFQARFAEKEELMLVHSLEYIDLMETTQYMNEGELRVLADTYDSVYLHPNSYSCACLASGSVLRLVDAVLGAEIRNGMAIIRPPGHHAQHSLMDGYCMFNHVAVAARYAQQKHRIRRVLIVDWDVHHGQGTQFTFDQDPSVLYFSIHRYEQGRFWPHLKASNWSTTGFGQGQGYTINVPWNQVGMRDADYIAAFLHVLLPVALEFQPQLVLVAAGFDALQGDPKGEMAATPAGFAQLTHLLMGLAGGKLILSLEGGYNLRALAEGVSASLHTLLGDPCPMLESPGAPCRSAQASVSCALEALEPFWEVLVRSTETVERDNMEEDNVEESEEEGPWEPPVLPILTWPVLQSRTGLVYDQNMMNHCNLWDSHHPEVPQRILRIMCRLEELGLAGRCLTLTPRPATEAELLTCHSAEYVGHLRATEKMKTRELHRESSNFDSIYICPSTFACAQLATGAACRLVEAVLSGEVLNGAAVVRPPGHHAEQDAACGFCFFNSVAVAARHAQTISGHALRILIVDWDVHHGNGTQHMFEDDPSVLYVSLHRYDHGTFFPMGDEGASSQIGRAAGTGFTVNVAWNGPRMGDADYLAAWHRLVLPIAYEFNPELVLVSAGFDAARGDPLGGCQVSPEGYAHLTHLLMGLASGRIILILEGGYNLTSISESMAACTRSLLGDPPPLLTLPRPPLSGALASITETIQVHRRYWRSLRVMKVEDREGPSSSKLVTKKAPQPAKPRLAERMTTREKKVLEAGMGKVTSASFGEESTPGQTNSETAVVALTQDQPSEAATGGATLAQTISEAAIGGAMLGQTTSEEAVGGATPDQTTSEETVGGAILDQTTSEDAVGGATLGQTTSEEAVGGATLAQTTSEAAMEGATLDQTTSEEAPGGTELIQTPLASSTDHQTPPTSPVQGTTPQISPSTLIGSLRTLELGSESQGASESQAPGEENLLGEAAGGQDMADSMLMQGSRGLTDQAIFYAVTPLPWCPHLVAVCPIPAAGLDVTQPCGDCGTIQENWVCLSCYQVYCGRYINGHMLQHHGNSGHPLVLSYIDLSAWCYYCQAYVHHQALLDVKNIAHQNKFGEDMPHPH
Briefly: HDAC activity assay (fluorogenic HDAC assay kit), HDAC6.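 Also: underlying HDAC activity read as fluorescence, excitation 350 nm and emission 440 nm.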 The format is biochemical.

The target in a further assay is T3, human recombinant HDAC2 (Homo sapiens, UniProt Q92769).
T3 construct: purchased BPS Bioscience, CA
T3 sequence (Q92769 whole entry): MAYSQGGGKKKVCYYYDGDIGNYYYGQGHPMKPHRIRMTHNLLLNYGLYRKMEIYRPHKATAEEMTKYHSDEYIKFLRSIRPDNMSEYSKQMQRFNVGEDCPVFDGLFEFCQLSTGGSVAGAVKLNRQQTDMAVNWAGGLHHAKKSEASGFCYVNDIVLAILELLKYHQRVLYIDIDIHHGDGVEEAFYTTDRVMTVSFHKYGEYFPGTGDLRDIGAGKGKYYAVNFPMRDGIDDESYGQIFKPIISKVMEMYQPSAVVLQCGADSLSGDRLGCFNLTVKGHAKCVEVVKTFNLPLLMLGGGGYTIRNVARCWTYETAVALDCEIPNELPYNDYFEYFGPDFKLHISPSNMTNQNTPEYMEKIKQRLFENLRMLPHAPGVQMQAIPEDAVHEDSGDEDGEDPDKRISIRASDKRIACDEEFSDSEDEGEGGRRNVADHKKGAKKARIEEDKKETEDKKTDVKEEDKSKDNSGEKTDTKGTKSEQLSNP
Briefly: HDAC activity assay (fluorogenic HDAC assay kit), HDAC2. The assay is classed as biochemical. To be noted: human recombinant HDAC2, 37 °C, 30 min.

Assay [4] has as its system breast cancer cells MCF-7. Briefly: Antiproliferative activity, CCK-8 assay, MCF-7. The assay is classed as cell-based. The conditions noted are these: Homo sapiens, MCF7; CCK-8, 72 hours; mean ± SD.
Procedure: as §2
Assay [5] concerns human lung adenocarcinoma cells A549. Nature of the assay: Antiproliferative activity, CCK-8 assay, A549. The conditions noted are these: CCK-8, 72 hours, mean ± SD. The assay is classed as cell-based.
Procedure: as §2

T1 sequence (Q13547 whole entry): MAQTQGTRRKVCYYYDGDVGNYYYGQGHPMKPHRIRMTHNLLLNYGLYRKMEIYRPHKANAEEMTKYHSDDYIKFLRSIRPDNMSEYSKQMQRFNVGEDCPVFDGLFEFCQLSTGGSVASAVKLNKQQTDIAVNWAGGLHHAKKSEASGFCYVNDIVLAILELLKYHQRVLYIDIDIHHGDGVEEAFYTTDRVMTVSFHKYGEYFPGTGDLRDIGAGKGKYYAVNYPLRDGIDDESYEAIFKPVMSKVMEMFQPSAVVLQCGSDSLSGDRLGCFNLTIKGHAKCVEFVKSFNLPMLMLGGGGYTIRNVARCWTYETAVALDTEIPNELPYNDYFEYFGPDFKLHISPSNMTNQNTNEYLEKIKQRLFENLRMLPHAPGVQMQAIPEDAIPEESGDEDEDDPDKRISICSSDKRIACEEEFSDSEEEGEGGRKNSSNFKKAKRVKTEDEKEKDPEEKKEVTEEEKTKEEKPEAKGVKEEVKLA
tubulin, sequence (P02550 whole entry): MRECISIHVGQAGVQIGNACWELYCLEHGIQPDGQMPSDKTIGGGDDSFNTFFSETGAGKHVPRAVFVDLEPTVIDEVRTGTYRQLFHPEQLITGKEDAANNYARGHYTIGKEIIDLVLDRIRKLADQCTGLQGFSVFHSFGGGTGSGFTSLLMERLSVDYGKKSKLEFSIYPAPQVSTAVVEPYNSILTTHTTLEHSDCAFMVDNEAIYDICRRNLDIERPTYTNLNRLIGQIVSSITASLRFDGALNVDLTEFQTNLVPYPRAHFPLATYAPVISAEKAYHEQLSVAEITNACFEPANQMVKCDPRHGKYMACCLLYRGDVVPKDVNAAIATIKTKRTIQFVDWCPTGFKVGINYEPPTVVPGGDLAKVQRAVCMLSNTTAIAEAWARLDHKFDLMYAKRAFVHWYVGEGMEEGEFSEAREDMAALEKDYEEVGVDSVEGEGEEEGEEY
tubulin, sequence (P02554 whole entry, further chain): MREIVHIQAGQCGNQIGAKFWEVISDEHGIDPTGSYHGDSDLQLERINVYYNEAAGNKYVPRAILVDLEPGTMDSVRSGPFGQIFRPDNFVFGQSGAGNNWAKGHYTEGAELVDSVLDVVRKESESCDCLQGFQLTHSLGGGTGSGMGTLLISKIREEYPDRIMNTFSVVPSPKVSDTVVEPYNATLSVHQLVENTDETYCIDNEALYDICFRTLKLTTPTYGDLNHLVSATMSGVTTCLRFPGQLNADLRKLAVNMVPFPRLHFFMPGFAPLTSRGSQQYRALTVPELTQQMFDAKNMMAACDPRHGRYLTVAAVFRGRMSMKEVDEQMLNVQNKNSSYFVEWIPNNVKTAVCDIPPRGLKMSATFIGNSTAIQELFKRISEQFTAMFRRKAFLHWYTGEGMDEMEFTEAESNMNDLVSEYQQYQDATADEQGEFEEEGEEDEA
Procedure for healthy MCF-10A cells: as §2
Procedure for human recombinant HDAC1: (§3) HDAC activity was measured using fluorogenic HDACs assay kit (BPS Bioscience, CA) according to the manufacturer's protocol. […] Fluorescence values were measured at an excitation of 350 nm and an emission of 440 nm using SpectraMax M2 microplate reader. IC50 values were calculated using Origin software. IC50 values were determined using nonlinear regression analysis.
Procedure for human recombinant HDAC2: as §3
Procedure for human recombinant HDAC6: as §3
Procedure for liver cancer cells HepG2: as §2
Procedure for tubulin: Tubulin polymerization assay was performed using a fluorescence-based tubulin polymerization assay Kit (BK011, Cytoskeleton, Inc.) according to the manufacturer's protocol. […] After addition of polymerization buffer and 0.4 mM GTP, the reaction mixtures were transferred to 0 °C cuvettes in a recording spectrophotometer. […] Data from each well was normalized relative to initial readings,[43] and plots of ΔODmax (final−initial values) against compound concentration, expressed relative to vehicle control (DMSO only), were used to calculate IC50 values.[44] IC50 values were determined using nonlinear regression analysis.

Regarding `C[C@H]1COc2c(N3CCN(C)CC3)c(F)cc3c(=O)c(C(=O)NCc4cn(CCCCCCC(=O)NO)nn4)cn1c23` [Compound 9b, (S)-9-Fluoro-N-((1-(7-(hydroxyamino)-7-oxoheptyl)-1H-1,2,3-triazol-4-yl)methyl)-3-methyl-10-(4methylpiperazin-1-yl)-7-oxo-3,7-dihydro-2H-[1,4]oxazino[2,3,4-ij]quinoline-6-carboxamide], the “tubulin polymerization inhibition compared with reference compound” value with tubulin is “equipotent to reference compound CA-4”. Further, the IC50 in [1] was 4900 ± 430 nM; in the assay with healthy MCF-10A cells, more than 100000 nM; in [2], 1100 ± 150 nM; in the assay on liver cancer cells HepG2 it was 2300 ± 310 nM; on human recombinant HDAC1, 29 ± 18 nM; on human recombinant HDAC6 (human recombinant HDAC6, 37 °C, 30 min) it was 21 ± 7 nM. Further, the IC50 at human recombinant HDAC2 was 41 ± 14 nM; in [4], 300 ± 140 nM; in assay [5], 2100 ± 260 nM. Also, in [3] (against all cancer cells), the “fold more potent than levofloxacin, antiproliferative activity” value was “over 20 fold”. In addition, the “Selectivity index HDAC6/1” value at human recombinant HDAC6 (ratio of IC50 HDAC1 to IC50 HDAC6) is 1.4. For the same compound, on human recombinant HDAC6 (ratio of IC50 HDAC2 to IC50 HDAC6), the “Selectivity index HDAC6/2” value was found to be 2.0.
In the case of `C[C@H]1COc2c(N3CCN(C)CC3)c(F)cc3c(=O)c(C(=O)O)cn1c23` [Levofloxacin, levofloxacin, reference compound], the IC50 was more than 100000 nM in [1]; more than 100000 nM in the assay with healthy MCF-10A cells; 71100 ± 4980 nM in [2]; more than 100000 nM with liver cancer cells HepG2; more than 70000 nM in assay [3] (Homo sapiens, A549, HepG2, MCF-7, PC-3, HeLa, read-out: IC50 proliferation of the five cancer cells); 64200 ± 5670 nM in assay [4]. Moreover, the IC50 in [5] amounted to 76300 ± 6510 nM.
